Publication PMC4633953, “FR171456 is a specific inhibitor of mammalian NSDHL and yeast Erg26p” (Nature Communications, 2015)

Test system: ERG26 heterozygous strain (erg26Δ/ERG26)
Assay: Haploinsufficiency profiling (HIP)
Type: cell-based, S. cerevisiae
Conditions: FR171456 at IC30 (4 μM)
Experimental: The HIP assay was performed in 24-well plates (Greiner 662102), with 1.6 ml per well YPD. Experimental compounds were tested at n=2 within the same plate at or close to their IC30 concentration. Each plate contained two no drug controls, one positive control (Benomyl), 10 experimental compounds in duplicates and one contamination control that received no cells. A standard experiment was 4 plates per 40 experimental compounds processed robotically without human intervention. YPD per compound filled wells were inoculated with ∼250 yeast cells per strain (100 μl of a 1.5-OD600 per ml culture) from an overnight log phase preculture to start the experiment (Supplementary Fig. 2). The plates were pipetted with a standard 96 pipettor head by providing tip boxes preconfigured with a special tip pattern. Plates were incubated for 16 h in a robotic shaking incubator at 30 °C/550 r.p.m. allowing for ∼5 doublings. ∼250 yeast cells per strain (120 μl of a 1.2-OD600 per ml culture) were subsequently transferred into a preconfigured 24-well plate that was stored in a robotic plate reservoir at 4 °C until 30 min prior to its use where it was prewarmed to 30 °C. Once inoculated the new plate was incubated at 30 °C/550 r.p.m. to allow the next five yeast generations (generation 6–10) and the plate containing the first five doubling cultures was stored at 4 °C. […]

SMILES: C=C(CCC(C)C1CCC2C1(C)CC(O)C13CC14C(=O)CC(O)C(C)(C(=O)O)C4C(=O)CC23O)C(C)C [FR171456, (1R,2aR,3R,5aR,5bS,7aR,8S,9S,11aS,12aR)-1,5b,9-trihydroxy-2a,8-dimethyl-3-((R)-6-methyl-5-methyleneheptan-2-yl)-7,11-dioxohexadecahydrocyclopenta[a]cyclopropa[e]-phenanthrene-8-carboxylic acid]
- strain sensitivity in HIP profile: most significant hypersensitivity
